Source: PubChem BioAssay (NCI)
Where “and” joins values, the source holds several entries; their conditions need not be identical. Equal values may be shown once.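 How tested: cells in 96-well plates exposed to compound for 48 hours at five concentrations. GI50 is the concentration that inhibits growth by half. Definition used: TGI = concentration required for complete inhibition of growth.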

Tests used:
Assay in all cases: NCI tumour cell line growth inhibition, 48 h
A549 NSCLC = tested on: A549 NSCLC
CAKI-1 renal = tested on: CAKI-1 renal
KM12 colon = tested on: KM12 colon
MALME-3M melanoma = tested on: MALME-3M melanoma
NCI-H522 lung = tested on: NCI-H522 lung
NCI/ADR-RES ovarian = tested on: NCI/ADR-RES ovarian
RPMI-8226 leukemia = tested on: RPMI-8226 leukemia
SK-MEL-28 melanoma = tested on: SK-MEL-28 melanoma
T-47D breast = tested on: T-47D breast
HCC-2998 colon = tested on: HCC-2998 colon

| SMILES | GI50 (A549 NSCLC) | TGI (A549 NSCLC) [µM] | GI50 (CAKI-1 renal) | TGI (CAKI-1 renal) [µM] | TGI (KM12 colon) [µM] | GI50 (MALME-3M melanoma) | TGI (MALME-3M melanoma) | GI50 (NCI-H522 lung) | TGI (NCI-H522 lung) | TGI (NCI/ADR-RES ovarian) | TGI (RPMI-8226 leukemia) | TGI (SK-MEL-28 melanoma) | TGI (T-47D breast) | TGI (HCC-2998 colon) | GI50 (HCC-2998 colon) | GI50 (KM12 colon) | GI50 (SK-MEL-28 melanoma) | GI50 (NCI/ADR-RES ovarian) [µM] | GI50 (RPMI-8226 leukemia) [µM] | GI50 (T-47D breast) [µM] |
| --- | --- | --- | --- | --- | --- | --- | --- | --- | --- | --- | --- | --- | --- | --- | --- | --- | --- | --- | --- | --- |
| COc1cc2c(cc1O)CCN[C@@]21CS[C@H]2c3c(OC(C)=O)c(C)c4c(c3C(COC1=O)N1C2C2NC(Cc3cc(C)c(OC)c(O)c32)[C@@H]1O)OCO4 (stereo partly drawn) | 0.000368 ng/mL | 10.4 | 0.000294 ng/mL | 3.03 | 11.3 | 0.000122 ng/mL | 0.000506 ng/mL | 4.5 ng/mL | < 10 nM and 0.0045 µg/mL | 0.0369 µM | > 100 µM and 6.4e-07 µg/mL | < 10 nM and 3.1e-07 µg/mL and 0.0045 µg/mL | 0.0453 µM | – | – | – | – | – | – | – |
| CO[C@H]1C[C@H](O[C@H]2CC[C@@]3(C)[C@H](CC[C@@H]4[C@@H]3CC[C@]3(C)[C@@H](C5=CC(=O)OC5)CC[C@]43O)C2)O[C@H](C)[C@H]1O | – | < 0.0118 | – | 0.0284 | 0.371 | – | 0.0113 µM | – | 0.0197 µM | 0.0472 µM | 0.0427 µM | 0.137 µM | – | 0.118 µM | – | – | – | – | – | – |
| NN=C1/C(=C\c2ccccc2)CCC/C1=C/c1ccccc1 | – | > 100 | – | – | > 100 | – | 81.1 µM | – | 36.1 µM | – | 38 µM | > 100 µM | – | > 100 µM | – | – | – | – | – | – |
| CC1(C)C2CC(=O)C1(C)C(OCc1ccccc1)C2Br (stereo not drawn) | – | > 100 | – | – | > 100 | 19.1 µM and 48.6 µM | 36.9 µM and > 100 µM | – | – | 42.1 µM and > 100 µM | – | > 100 µM | 77.9 µM and > 100 µM | 69.3 µM and > 100 µM | 27.7 µM and 98.6 µM | 31.4 µM and 63 µM | 15.1 µM and > 100 µM | – | – | – |
| NP1(Oc2ccc(F)cc2)=NP(N)(Oc2ccc(F)cc2)=NP(Oc2ccc(F)cc2)(Oc2ccc(F)cc2)=N1 (stereo not drawn) | – | 14.6 | – | 21.8 | 16.2 | – | 18.7 µM | – | – | 18.4 µM | 18.3 µM | 25.2 µM | 7.27 µM | 8.4 µM | – | – | – | – | – | – |
| OC[C@H]1C[C@](O)(c2ccccc2Cl)[C@@H](c2ccccc2Cl)O1 | 22.9 µM | 58.1 | 32 µM | 86.1 | 64.8 | 21.6 µM | 51.4 µM | 13.4 µM | 38.4 µM | > 100 µM | 58.2 µM | 79.6 µM | – | 79.4 µM | 29.5 µM | 25.4 µM | 26.4 µM | 29.4 | 21.7 | – |
| O=C1c2c(c3c4ccccc4n(CC4CO4)c3c3[nH]c4ccccc4c23)C(=O)N1Cc1ccccc1 (stereo not drawn) | – | > 100 | – | > 100 | > 100 | – | > 100 µM | – | > 100 µM | – | > 100 µM | > 100 µM | – | > 100 µM | – | – | – | – | – | – |
| N/N=C1/C(=O)N(c2ccc(Cl)cc2)C(=O)C(=O)C1c1nc2ccccc2s1 (stereo not drawn) | – | > 100 | – | > 100 | > 100 | – | > 100 µM | – | > 100 µM | – | > 100 µM | > 100 µM | – | > 100 µM | – | – | – | – | – | – |
| CCOC(=O)C1=C(C)N(NC(=O)Nc2ccccc2)C2(N)N(NC(=O)Nc3ccccc3)C(C)=C(C(=O)OCC)C12C#N (stereo not drawn) | – | > 100 | – | 40.1 | – | – | 30.6 µM | – | 33.1 µM | – | 50.5 µM | 32.1 µM | – | 33.9 µM | – | – | – | – | – | – |
| CC(C)(C)n1cc(-c2ccnc(NCCCNS(=O)(=O)c3cccc4ccccc34)c2)c(-c2cccc(O)c2)n1 | 2.29 µM | 5.99 | 2.49 µM | 7.04 | 5.42 | 1.51 µM | 3.18 µM | – | – | – | – | 3.24 µM | 6.18 µM | 3.37 µM | 1.87 µM | 2.34 µM | 1.67 µM | – | – | 2.22 |
| CC1=Nc2ccccc2S/C1=C1/C=NC(=NC#N)N=C1C(=O)Nc1cccc(Cl)c1 | – | > 100 | – | > 100 | > 100 | – | > 100 µM | – | > 100 µM | – | > 100 µM | > 100 µM | – | > 100 µM | – | – | – | – | – | – |
| C#Cc1c(C)c(/C=C/C(C)=C\C(=O)OC)n(C)c1C | – | > 100 | – | > 100 | > 100 | – | > 100 µM | – | > 100 µM | – | > 100 µM | – | – | > 100 µM | – | – | – | – | – | – |
| N#Cc1c(N)oc2cc3c(C#N)c(N)oc3cc12 | – | > 100 | – | > 100 | > 100 | – | > 100 µM | – | > 100 µM | – | > 100 µM | > 100 µM | – | > 100 µM | – | – | – | – | – | – |
| CC1OC(O[C@@H]2C=C3CC[C@@H]4[C@H](CC[C@]5(C)[C@@H](c6ccc(=O)oc6)CC[C@]45O)[C@@]3(C)CC2)C(O)C(O)C1O (stereo partly drawn) | – | – | – | 0.000992 | – | – | 0.00238 µM and 0.00139 µM | – | – | 0.003 µM and 0.000304 µM | – | – | – | 0.003 µM | 0.00159 µM | – | 0.00281 µM | – | – | 0.000846 |
| CCN(CC)c1ccc(N=Nc2ccc(-c3nc4cccnc4s3)cc2)cc1 | – | > 100 | – | > 100 | > 100 | – | > 100 µM | – | > 100 µM | – | > 100 µM | > 100 µM | – | > 100 µM | – | – | – | – | – | – |
| CC(C)(c1ccc(C=O)o1)c1ccc(C(C)(C)c2ccc(C=O)o2)o1 | – | > 100 | – | > 100 | > 100 | – | > 100 µM | – | > 100 µM | – | – | > 100 µM | – | > 100 µM | – | – | – | – | – | – |
| CN(N=O)c1ccc(/C=C/c2ccnc3ccccc23)cc1 | – | > 100 | – | > 100 | > 100 | – | > 100 µM | – | > 100 µM | > 100 µM | – | > 100 µM | > 100 µM | – | – | – | – | – | – | – |
| COc1cc(O)c(C(=O)C2Cc3ccccc32)c(OC)c1 (stereo not drawn) | – | > 100 | – | 72.4 | > 100 | – | > 100 µM | – | > 100 µM | – | 47.4 µM | – | – | > 100 µM | – | – | – | – | – | – |
| Cc1nc2ccccc2c(=O)n1/N=C(\N=Nc1cc(Cl)ccc1Cl)c1ccc(N(C)C)cc1 | – | > 100 | – | 79.8 | – | – | – | – | 92.3 µM | – | > 100 µM | > 100 µM | – | – | – | – | – | – | – | – |
| COc1ccc(/C=C\c2cc(OC)c(OC)c(OC)c2)cc1NC(=O)/C=C/c1cc(OC)c(OC)c(OC)c1 | 3.82 µM | > 100 | 2.94 µM | > 100 | > 100 | – | – | 2.51 µM | > 100 µM | > 100 µM | > 100 µM | > 100 µM | > 100 µM | > 100 µM | 3.73 µM | 4.67 µM | 3.42 µM | 2.1 | 2.9 | 5.01 |
| O=C(CC1(O)C(=O)Nc2ccccc21)c1cccc(O)c1 (stereo not drawn) | – | > 100 | – | > 100 | – | – | > 100 µM | – | > 100 µM | – | > 100 µM | > 100 µM | – | – | – | – | – | – | – | – |
